{
  "source": "patent US4414388A",
  "about": "“1-Oxo-1H-thiazolo[3,2-a]pyrimidine-2-carboxamides” (Pfizer Inc., priority 1981, dated 1983)",
  "key": {"inhaled histamine": {"system": "inhaled histamine", "assay": "bronchoconstrictive effects of inhaled histamine", "format": "in vivo, guinea pig", "conditions": "30 mg/kg i.p."}, "isolated rat monocytes": {"system": "isolated rat monocytes", "assay": "ionophore-stimulated synthesis and release of SRS in isolated monocytes", "format": "cell-based"}, "[1]": {"system": "cold-restraint stress gastric ulcer", "assay": "cold-restraint stressed rat assay", "format": "in vivo", "description": "The effectiveness of the products of this invention as anticulcer agents is determined by the so-called cold-restraint stressed rat assay. In this test nonfasted female rats (Charles River C-D strain) weighing 70-140 gms. are administered the drug or carrier (control animals) intraperitoneally (in saline solution containing 1% carboxymethylcellulose and 0.1% Tween 80) or orally (in water) three hours before being lightly anesthetized with ether and taped in the supine position to individual sheets of plexiglass. After recovery from anesthesia, the restrained animals are positioned horizontally in a refrigerator maintained at 10°-12° C. and three hours later sacrificed by cervical dislocation. The abdomen of each rat is opened, the pylorus clamped, the stomach inflated with saline via an oral tube, the esophagus clamped and the stomach excised. The stomachs are placed in a 0.4% formaldehyde solution for approximately 30 seconds to harden the outer layers and facilitate examination. Each stomach is then cut open along the greater curvature and the glandular portion (hind stomach) examined for damage. The number of gastric erosions, their severity and the color of the stomachs is recorded. […]"}, "[2]": {"system": "ulcerogenic effects of aspirin", "assay": "aspirin-induced gastric ulcer", "format": "in vivo", "conditions": "po; aspirin 100 mg/kg p.o.", "description": "Compound III also protects against the ulcerogenic effects of aspirin, 100 mg/kg p.o. where dose-related effects are seen over the dose range of 10 to 1000 μg/kg, p.o. with an ED50 of 100 μg/kg. Compound III is also active in a phenylbutazone gastric ulcer model where an oral ED50 of 200 μg/kg is observed. […] \"Cytoprotective,\" a term coined recently to describe the antiulcer effects of prostaglandins that are independent of antisecretory activity, [Robert, Advances in Prostaglandin and Thromboxane Research 2, 507 (1976); Miller et al., Gut 20, 75 (1979); Robert et al., Gastroenterology 72, 1121 (1977).] aptly characterizes the effects of compound III."}, "[3]": {"system": "phenylbutazone gastric ulcer", "assay": "phenylbutazone gastric ulcer model", "format": "in vivo", "conditions": "po", "source_text": "Miller et al., Gut 20, 75 (1979); Robert et al., Gastroenterology 72, 1121 (1977).] aptly characterizes the effects of compound III."}, "[4]": {"assay": "acute subcutaneous toleration in mice", "conditions": "mouse, in vivo, sc; subcutaneous, mice", "description": "(§1) Compound III was administered subcutaneously to mice at doses of 100, 300 or 1000 mg/kg."}, "mice": {"system": "mice", "assay": "acute subcutaneous toleration in mice", "conditions": "mouse, in vivo", "description": "as §1"}, "point mutations": {"system": "point mutations", "assay": "Ames test in vitro", "format": "cell-based"}, "[5]": {"assay": "stability (solid state, in admixture and in solution)", "format": "physicochemical", "conditions": "pure solid state, with standard pharmaceutical diluents"}, "[6]": {"system": "passive cutaneous anaphylaxis (PCA)", "assay": "PCA test, oral activity in general", "format": "in vivo, rat", "description": "The antiallergy property of the compounds of this invention is evaluated by the passive cutaneous anaphylaxis (PCA) test (Ovary, J. Immun., 81, 355, 1958). In the PCA test, normal animals are injected intradermally (i.d.) with antibodies contained in serum obtained from actively sensitized animals. The animals are then challenged intravenously with antigen mixed with a dye such as Evans' Blue. The increased capillary permeability caused by the antigen-antibody reaction causes the dye to leak from the site of the antibody injection. The test animals are then asphyxiated and the intensity of the reaction determined by measuring the diameter and intensity of the blue coloration on the inner surface of the animals' skin.\nThe ability of agents to interfere with PCA reactions is measured in male Charles River Wistar rats, 170-210 g. Reaginic antiserum, rich in IgE antibodies, is prepared according to Petillo et al., Int. Arch. Allergy, 44, 309 (1973). Hyperimmune antiserum rich in IgG antibodies to hen egg albumin is prepared according to Orange et al., J. Exptl. Med., 127, 767 (1968). Forty-eight hours prior to antigen challenge, the reaginic antiserum is injected intradermally (i.d.) into the shaved skin of a normal rat's back; 5 hours before challenge the hyperimmune antisera is similarly injected. […] The difference is expressed as percent blockage due to the compound employed."}},
  "data": [
    {"smiles": "O=C(Nc1nnn[nH]1)c1cnc2sc3c(n2c1=O)CCCC3", "note": "[compound III, N-(5-tetrazolyl)-1-oxo-1H-cyclohexenothiazolo[3,2-a]pyrimidine-2-carboxamide]", "values": [
      {"measurement": "protection against bronchoconstrictive effects of inhaled histamine", "setting": "inhaled histamine", "value": "not protected"},
      {"measurement": "synthesis and release of SRS in isolated rat monocytes, stimulated by an ionophore", "setting": "isolated rat monocytes", "value": "is not inhibited"},
      {"measurement": "potency in the cold-restraint stress gastric ulcer procedure and the ethanol-induced rat ulcer assay, in words", "setting": "[1]; oral", "value": "highly potent"},
      {"measurement": "potency in the cold-restraint stressed rat assay", "setting": "[1]; rat, in vivo", "value": "extremely potent"},
      {"measurement": "ED50", "setting": "[2]", "value": 0.1, "unit": "mg/kg"},
      {"measurement": "ED50", "setting": "[3]", "value": 0.2, "unit": "mg/kg"},
      {"measurement": "LD50", "setting": "[4]", "value": "> 1000", "unit": "mg/kg"},
      {"measurement": "symptoms or lethality", "setting": "mice", "value": "No symptoms or lethality was observed"},
      {"measurement": "point mutations, Ames test", "setting": "point mutations", "value": "did not induce point mutations"},
      {"measurement": "stability", "setting": "[5]", "value": "exceptionally good stability"},
      {"measurement": "stability", "setting": "[5]; listed as formula III", "value": "highly stable"},
      {"measurement": "oral activity, in words", "setting": "[6]", "value": "excellent oral activity"}
    ]}
  ]
}
